Measured values: ChEMBL document CHEMBL1201861, “Genomics of Drug Sensitity in Cancer screening data, Wellcome Trust Sanger Institute”
pIC50: −log10 of the molar value.

Columns and labels:
Assay in all cases: cells
Format in all cases: functional, cell-based, Homo sapiens
K5 = test system: K5
Description: SANGER: Inhibition of human K5 cell growth in a cell viability assay.

TE-9 = test system: TE-9;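 note: cell growth inhibition, measured with a cell viability readout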
Description: SANGER: Inhibition of human TE-9 cell growth in a cell viability assay.

LXF-289 cell line = test system: LXF-289 cell line
Description: SANGER: Inhibition of human LXF-289 cell growth in a cell viability assay.

U-266 = test system: U-266
Description: SANGER: Inhibition of human U-266 cell growth in a cell viability assay.

C8166 = test system: C8166;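 note: growth inhibition of human C8166 cells measured by a cell viability assay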
Description: SANGER: Inhibition of human C8166 cell growth in a cell viability assay.

LNCaP-Clone-FGC = test system: LNCaP-Clone-FGC
Description: SANGER: Inhibition of human LNCaP-Clone-FGC cell growth in a cell viability assay.

DJM-1 = test system: DJM-1;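 note: growth inhibition of human DJM-1 cells, read out by a cell viability assay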
Description: SANGER: Inhibition of human DJM-1 cell growth in a cell viability assay.

SF-539 = test system: SF-539;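 note: Read-out is a cell viability assay, with IC50 reflecting inhibition of cell growth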
Description: SANGER: Inhibition of human SF539 cell growth in a cell viability assay.

LOX IMVI = test system: LOX IMVI
Description: SANGER: Inhibition of human LOXIMVI cell growth in a cell viability assay.

MHH-NB-11 = test system: MHH-NB-11;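 note: growth inhibition of human MHH-NB-11 cells, read out by a cell viability assay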
Description: SANGER: Inhibition of human MHH-NB-11 cell growth in a cell viability assay.

COLO-824 = test system: COLO-824
Description: SANGER: Inhibition of human COLO-824 cell growth in a cell viability assay.

LS-411N = test system: LS-411N
KNS-42 = test system: KNS-42;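 note: growth inhibition of KNS-42 cells, read out with a cell viability assay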
Description: SANGER: Inhibition of human KNS-42 cell growth in a cell viability assay.

KG-1 = test system: KG-1;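 note: growth inhibition of KG-1 cells, read out by a cell viability assay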
Description: SANGER: Inhibition of human KG-1 cell growth in a cell viability assay.

PSN1 = test system: PSN1;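 note: suppression of growth of human PSN1 cells, read out by a cell viability assay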
Description: SANGER: Inhibition of human PSN1 cell growth in a cell viability assay.

EW-16 = test system: EW-16;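 note: growth inhibition of human EW-16 cells, read out as cell viability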
Description: SANGER: Inhibition of human EW-16 cell growth in a cell viability assay.

ES7 = test system: ES7;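 note: growth inhibition of cultured human ES7 cells, read out as cell viability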
Description: SANGER: Inhibition of human ES7 cell growth in a cell viability assay.

KM-H2 = target: KM-H2;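 note: growth inhibition of KM-H2 cells, read out by a cell viability assay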
Description: SANGER: Inhibition of human KM-H2 cell growth in a cell viability assay.

MZ2-MEL = test system: MZ2-MEL;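 note: growth inhibition of MZ2-MEL cells read out with a cell viability assay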
Description: SANGER: Inhibition of human MZ2-MEL cell growth in a cell viability assay.

OMC-1 = test system: OMC-1;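 note: growth inhibition of the OMC-1 cell line, measured by a cell viability assay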
Description: SANGER: Inhibition of human OMC-1 cell growth in a cell viability assay.

NCI-H23 = test system: NCI-H23;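 note: cell viability assay measuring growth inhibition of NCI-H23 cells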
Description: SANGER: Inhibition of human NCI-H23 cell growth in a cell viability assay.

BB65-RCC = test system: BB65-RCC;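 note: growth inhibition of the cell line, measured with a cell viability assay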
Description: SANGER: Inhibition of human BB65-RCC cell growth in a cell viability assay.

NB6 = test system: NB6;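 note: growth inhibition of NB6 cells, read out by a cell viability assay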
Description: SANGER: Inhibition of human NB6 cell growth in a cell viability assay.

IST-MEL1 = test system: IST-MEL1;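 note: growth inhibition of the cell line, read out with a cell viability assay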
Description: SANGER: Inhibition of human IST-MEL1 cell growth in a cell viability assay.

LU-134-A = test system: LU-134-A
Description: SANGER: Inhibition of human LU-134-A cell growth in a cell viability assay.

SJSA-1 = test system: SJSA-1;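 note: growth inhibition of human SJSA-1 cells, read out through a cell viability measurement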
Description: SANGER: Inhibition of human SJSA-1 cell growth in a cell viability assay.

KY821 = test system: KY821;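 note: growth inhibition of human KY821 cells, read out by a cell viability assay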
Description: SANGER: Inhibition of human KY821 cell growth in a cell viability assay.

NCI-H510A = test system: NCI-H510A;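 note: growth inhibition of NCI-H510A cells, read out with a cell viability assay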
Description: SANGER: Inhibition of human NCI-H510A cell growth in a cell viability assay.

L-363 = test system: L-363
Description: SANGER: Inhibition of human L-363 cell growth in a cell viability assay.

SW872 = test system: SW872;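 note: growth inhibition of SW872 cells, read out by a viability assay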
Description: SANGER: Inhibition of human SW872 cell growth in a cell viability assay.

A3-KAW = test system: A3-KAW;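 note: growth inhibition of human A3-KAW cells, read out with a cell viability assay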
Description: SANGER: Inhibition of human A3-KAW cell growth in a cell viability assay.

IST-MES1 = test system: IST-MES1;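 note: growth inhibition of IST-MES1 cells, measured with a cell viability assay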
Description: SANGER: Inhibition of human IST-MES1 cell growth in a cell viability assay.

EOL1 = test system: EOL1;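 note: growth inhibition of EoL-1 cells, read out by a cell viability assay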
Description: SANGER: Inhibition of human EoL-1-cell cell growth in a cell viability assay.

LB2518-MEL = test system: LB2518-MEL;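 note: growth inhibition of human LB2518-MEL cells, measured with a cell viability assay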
Description: SANGER: Inhibition of human LB2518-MEL cell growth in a cell viability assay.

TK-10 = test system: TK-10;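 note: growth inhibition of TK-10 cells, read out in a cell viability assay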
Description: SANGER: Inhibition of human TK10 cell growth in a cell viability assay.

OVCAR-4 = test system: OVCAR-4;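 note: growth inhibition of human OVCAR-4 cells, measured with a cell viability assay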
Description: SANGER: Inhibition of human OVCAR-4 cell growth in a cell viability assay.

TE-5 = test system: TE-5;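 note: inhibition of cell growth, read out by a cell viability assay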
Description: SANGER: Inhibition of human TE-5 cell growth in a cell viability assay.

LB771-HNC = test system: LB771-HNC;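 note: growth inhibition of LB771-HNC human cells, read out with a cell viability assay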
Description: SANGER: Inhibition of human LB771-HNC cell growth in a cell viability assay.

ES5 = test system: ES5;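 note: growth inhibition of human ES5 cells, read out by a cell viability assay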
Description: SANGER: Inhibition of human ES5 cell growth in a cell viability assay.

SK-N-FI = test system: SK-N-FI;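 note: cell viability assay measuring growth inhibition of human SK-N-FI cells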
Description: SANGER: Inhibition of human SK-N-FI cell growth in a cell viability assay.

RPMI-8866 = test system: RPMI-8866
Description: SANGER: Inhibition of human RPMI-8866 cell growth in a cell viability assay.

GB-1 = test system: GB-1;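 note: growth of GB-1 cells judged by a viability assay, IC50 marks the concentration inhibiting growth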
Description: SANGER: Inhibition of human GB-1 cell growth in a cell viability assay.

NCI-H82 = test system: NCI-H82;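 note: growth inhibition of NCI-H82 cells, measured with a cell viability readout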
Description: SANGER: Inhibition of human NCI-H82 cell growth in a cell viability assay.

BB49-HNC = test system: BB49-HNC;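 note: cell viability assay read-out, reported as inhibition of BB49-HNC cell growth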
Description: SANGER: Inhibition of human BB49-HNC cell growth in a cell viability assay.

HOP-62 = test system: HOP-62;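 note: cell growth inhibition determined with a viability assay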
Description: SANGER: Inhibition of human HOP-62 cell growth in a cell viability assay.

NCI-H1838 = test system: NCI-H1838;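 note: growth inhibition of NCI-H1838 cells, determined with a cell viability readout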
Description: SANGER: Inhibition of human NCI-H1838 cell growth in a cell viability assay.

KNS-81-FD = test system: KNS-81-FD;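 note: growth inhibition of KNS-81-FD cells, read out with a cell viability assay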
Description: SANGER: Inhibition of human KNS-81-FD cell growth in a cell viability assay.

Mo = test system: Mo
Description: SANGER: Inhibition of human Mo-T cell growth in a cell viability assay.

MPP-89 = test system: MPP-89;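 note: growth inhibition of human MPP-89 cells, read out with a cell viability assay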
Description: SANGER: Inhibition of human MPP-89 cell growth in a cell viability assay.

BLEOMYCIN
pIC50 (K5; k5): 4.14 | pIC50 (TE-9; te-9): 4.47 | pIC50 (LXF-289 cell line; lxf-289): 6.19 | pIC50 (U-266; u-266): 3.55 | pIC50 (C8166; c8166): 5.11 | pIC50 (LNCaP-Clone-FGC; lncap-clone-fgc): 4.74 | pIC50 (DJM-1; djm-1): 5.95 | pIC50 (SF-539; sf-539): 6.41 | pIC50 (LOX IMVI; lox imvi): 6.34 | pIC50 (MHH-NB-11; mhh-nb-11): 5.70 | pIC50 (COLO-824; colo-824): 4.27 | pIC50 (LS-411N; ls-411n): 7.28 | pIC50 (KNS-42; kns-42): 3.16 | pIC50 (KG-1; kg-1): 6.88 | pIC50 (PSN1; psn1): 6.86 | pIC50 (EW-16; ew-16): 8.16 | pIC50 (ES7; es7): 6.42 | pIC50 (KM-H2; km-h2): 5.16 | pIC50 (MZ2-MEL; mz2-mel): 5.53 | pIC50 (OMC-1; omc-1): 4.92 | pIC50 (NCI-H23; nci-h23): 5.61 | pIC50 (BB65-RCC; bb65-rcc): 4.67 | pIC50 (NB6; nb6): 3.37 | pIC50 (IST-MEL1; ist-mel1): 6.55 | pIC50 (LU-134-A; lu-134-a): 4.38 | pIC50 (SJSA-1; sjsa-1): 5.66 | pIC50 (KY821; ky821): 3.33 | pIC50 (NCI-H510A; nci-h510a): 5.96 | pIC50 (L-363; l-363): 3.73 | pIC50 (SW872; sw872): 5.46 | pIC50 (A3-KAW; a3-kaw): 6.14 | pIC50 (IST-MES1; ist-mes1): 3.69 | pIC50 (EOL1; eol1): 5.62 | pIC50 (LB2518-MEL; lb2518-mel): 6.74 | pIC50 (TK-10; tk-10): 6.00 | pIC50 (OVCAR-4; ovcar-4): 5.36 | pIC50 (TE-5; te-5): 5.10 | pIC50 (LB771-HNC; lb771-hnc): 3.68 | pIC50 (ES5; es5): 6.30 | pIC50 (SK-N-FI; sk-n-fi): 2.68 | pIC50 (RPMI-8866; rpmi-8866): 5.10 | pIC50 (GB-1; gb-1): 6.41 | pIC50 (NCI-H82; nci-h82): 3.65 | pIC50 (BB49-HNC; bb49-hnc): 4.41 | pIC50 (HOP-62; hop-62): 8.38 | pIC50 (NCI-H1838; nci-h1838): 4.61 | pIC50 (KNS-81-FD; kns-81-fd): 3.18 | pIC50 (Mo; mo): 3.99 | pIC50 (MPP-89; mpp-89): 4.40

Cc1ccc(-c2c(C(=O)CCl)n(CCCO)c3ncnc(N)c23)cc1
pIC50 (K5; Homo sapiens, K5): < 5.40 | pIC50 (TE-9; Homo sapiens, TE-9): < 5.40 | pIC50 (LXF-289 cell line; Homo sapiens, LXF-289): < 5.40 | pIC50 (U-266; Homo sapiens, U-266): < 5.40 | pIC50 (C8166; Homo sapiens, C8166): < 5.40 | pIC50 (LNCaP-Clone-FGC; Homo sapiens, LNCaP-Clone-FGC): < 5.40 | pIC50 (DJM-1; Homo sapiens, DJM-1): < 5.40 | pIC50 (SF-539; Homo sapiens, SF-539): < 5.40 | pIC50 (LOX IMVI; Homo sapiens, LOX IMVI): < 5.40 | pIC50 (MHH-NB-11; Homo sapiens, MHH-NB-11): < 5.40 | pIC50 (COLO-824; Homo sapiens, COLO-824): < 5.40 | pIC50 (LS-411N; Homo sapiens, LS-411N): < 5.40 | pIC50 (KNS-42; Homo sapiens, KNS-42): < 5.40 | pIC50 (KG-1; Homo sapiens, KG-1): < 5.40 | pIC50 (PSN1; Homo sapiens, PSN1): 5.56 | pIC50 (EW-16; Homo sapiens, EW-16): < 5.40 | pIC50 (ES7; Homo sapiens, ES7): < 5.40 | pIC50 (KM-H2; Homo sapiens, KM-H2): < 5.40 | pIC50 (MZ2-MEL; Homo sapiens, MZ2-MEL): < 5.40 | pIC50 (OMC-1; Homo sapiens, OMC-1): < 5.40 | pIC50 (NCI-H23; Homo sapiens, NCI-H23): < 5.40 | pIC50 (BB65-RCC; Homo sapiens, BB65-RCC): < 5.40 | pIC50 (NB6; Homo sapiens, NB6): < 5.40 | pIC50 (IST-MEL1; Homo sapiens, IST-MEL1): < 5.40 | pIC50 (LU-134-A; Homo sapiens, LU-134-A): < 5.40 | pIC50 (SJSA-1; Homo sapiens, SJSA-1): < 5.40 | pIC50 (KY821; Homo sapiens, KY821): 5.43 | pIC50 (NCI-H510A; Homo sapiens, NCI-H510A): < 5.40 | pIC50 (L-363; Homo sapiens, L-363): < 5.40 | pIC50 (SW872; Homo sapiens, SW872): < 5.40 | pIC50 (A3-KAW; Homo sapiens, A3-KAW): < 5.40 | pIC50 (IST-MES1; Homo sapiens, IST-MES1): < 5.40 | pIC50 (EOL1; Homo sapiens, EOL1): < 5.40 | pIC50 (LB2518-MEL; Homo sapiens, LB2518-MEL): < 5.40 | pIC50 (TK-10; Homo sapiens, TK-10): 5.71 | pIC50 (OVCAR-4; Homo sapiens, OVCAR-4): < 5.40 | pIC50 (TE-5; Homo sapiens, TE-5): < 5.40 | pIC50 (LB771-HNC; Homo sapiens, LB771-HNC): < 5.40 | pIC50 (ES5; Homo sapiens, ES5): < 5.40 | pIC50 (SK-N-FI; Homo sapiens, SK-N-FI): < 5.40 | pIC50 (RPMI-8866; Homo sapiens, RPMI-8866): < 5.40 | pIC50 (GB-1; Homo sapiens, GB-1): < 5.40 | pIC50 (NCI-H82; Homo sapiens, NCI-H82): < 5.40 | pIC50 (BB49-HNC; Homo sapiens, BB49-HNC): < 5.40 | pIC50 (HOP-62; Homo sapiens, HOP-62): < 5.40 | pIC50 (NCI-H1838; Homo sapiens, NCI-H1838): < 5.40 | pIC50 (KNS-81-FD; Homo sapiens, KNS-81-FD): < 5.40 | pIC50 (Mo; Homo sapiens, Mo): < 5.40 | pIC50 (MPP-89; Homo sapiens, MPP-89): < 5.40
